Experimental data published in PubChem BioAssay (NCI).
Where “and” joins values, the source holds several entries; their conditions need not be identical. Identical values can stand only once.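 In this assay, cells in 96-well plates receive the compound at five concentrations for 48 hours. Endpoints are linearly interpolated between the surrounding concentrations. Here, GI50 denotes the concentration required for 50% inhibition of growth. TGI denotes the concentration required for complete inhibition of growth.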

How the values were obtained:
Experiment in all cases: NCI tumour cell line growth inhibition, 48 h
HCC-2998 colon = test system: HCC-2998 colon
KM12 colon = test system: KM12 colon
IGROV1 ovarian = test system: IGROV1 ovarian
NCI/ADR-RES ovarian = test system: NCI/ADR-RES ovarian
OVCAR-3 ovarian = test system: OVCAR-3 ovarian
DMS 114 small cell lung = test system: DMS 114 small cell lung
DLD-1 colon = test system: DLD-1 colon
CCRF-CEM leukemia = test system: CCRF-CEM leukemia
XF 498 CNS = test system: XF 498 CNS
P388/ADR leukemia = test system: P388/ADR leukemia
RPMI-8226 leukemia = test system: RPMI-8226 leukemia
OVCAR-5 ovarian = test system: OVCAR-5 ovarian
SW-620 colon = test system: SW-620 colon
K-562 leukemia = test system: K-562 leukemia
OVCAR-4 ovarian = test system: OVCAR-4 ovarian
UACC-257 melanoma = test system: UACC-257 melanoma
NCI-H226 lung = test system: NCI-H226 lung
SNB-19 CNS = test system: SNB-19 CNS
OVCAR-8 ovarian = test system: OVCAR-8 ovarian
A549 NSCLC = test system: A549 NSCLC
COLO 205 colon = test system: COLO 205 colon
HOP-18 NSCLC = test system: HOP-18 NSCLC
CAKI-1 renal = test system: CAKI-1 renal
SF-539 CNS = test system: SF-539 CNS
MCF7 breast = test system: MCF7 breast
HCT-15 colon = test system: HCT-15 colon
SN12C renal = test system: SN12C renal
SF-295 CNS = test system: SF-295 CNS
NCI-H522 lung = test system: NCI-H522 lung
SK-MEL-2 melanoma = test system: SK-MEL-2 melanoma
LOX IMVI melanoma = test system: LOX IMVI melanoma
UO-31 renal = test system: UO-31 renal
DMS 273 small cell lung = test system: DMS 273 small cell lung
RXF 393 renal = test system: RXF 393 renal
A498 renal = test system: A498 renal
NCI-H460 lung = test system: NCI-H460 lung
HL-60(TB) leukemia = test system: HL-60(TB) leukemia
HCT-116 colon = test system: HCT-116 colon
SK-MEL-28 melanoma = test system: SK-MEL-28 melanoma
NCI-H23 lung = test system: NCI-H23 lung
SK-OV-3 ovarian = test system: SK-OV-3 ovarian
HOP-62 NSCLC = test system: HOP-62 NSCLC
KM20L2 colon = test system: KM20L2 colon
MOLT-4 leukemia = test system: MOLT-4 leukemia
EKVX NSCLC = test system: EKVX NSCLC
SN12K1 renal = test system: SN12K1 renal
U251 CNS = test system: U251 CNS
HT29 colon = test system: HT29 colon
HOP-92 NSCLC = test system: HOP-92 NSCLC
P388 leukemia = test system: P388 leukemia
SNB-75 CNS = test system: SNB-75 CNS
SK-MEL-5 melanoma = test system: SK-MEL-5 melanoma
SNB-78 CNS = test system: SNB-78 CNS
SF-268 CNS = test system: SF-268 CNS
UACC-62 melanoma = test system: UACC-62 melanoma
MALME-3M melanoma = test system: MALME-3M melanoma
M19-MEL melanoma = test system: M19-MEL melanoma
LXFL 529 NSCLC = test system: LXFL 529 NSCLC

## CC1=C2C(O)C(C(C)C(=O)NC(C)C)CCC2(C)C=CC1=O (stereo not drawn)
HCC-2998 colon
  TGI: > 100 µM
KM12 colon
  TGI: > 100 µM
IGROV1 ovarian
  TGI: > 100 µM
NCI/ADR-RES ovarian
  TGI: > 100 µM
OVCAR-3 ovarian
  TGI: > 100 µM
DMS 114 small cell lung
  TGI: > 100 µM
DLD-1 colon
  TGI: > 100 µM
CCRF-CEM leukemia
  TGI: > 100 µM
XF 498 CNS
  TGI: > 100 µM
P388/ADR leukemia
  TGI: > 100 µM
RPMI-8226 leukemia
  TGI: > 100 µM
OVCAR-5 ovarian
  TGI: > 100 µM
SW-620 colon
  TGI: > 100 µM
K-562 leukemia
  TGI: > 100 µM
OVCAR-4 ovarian
  TGI: > 100 µM
UACC-257 melanoma
  TGI: > 100 µM
NCI-H226 lung
  TGI: > 100 µM
SNB-19 CNS
  TGI: > 100 µM
OVCAR-8 ovarian
  TGI: > 100 µM
A549 NSCLC
  TGI: > 100 µM
COLO 205 colon
  TGI: > 100 µM
HOP-18 NSCLC
  TGI: > 100 µM
CAKI-1 renal
  TGI: > 100 µM
SF-539 CNS
  TGI: > 100 µM
MCF7 breast
  TGI: > 100 µM
HCT-15 colon
  TGI: > 100 µM
SN12C renal
  TGI: > 100 µM
SF-295 CNS
  TGI: > 100 µM
NCI-H522 lung
  TGI: > 100 µM
SK-MEL-2 melanoma
  TGI: > 100 µM
LOX IMVI melanoma
  TGI: > 100 µM
UO-31 renal
  TGI: > 100 µM
DMS 273 small cell lung
  TGI: > 100 µM
RXF 393 renal
  TGI: > 100 µM
A498 renal
  TGI: > 100 µM
NCI-H460 lung
  TGI: > 100 µM
HL-60(TB) leukemia
  TGI: > 100 µM
HCT-116 colon
  TGI: > 100 µM
SK-MEL-28 melanoma
  TGI: > 100 µM
NCI-H23 lung
  TGI: > 100 µM
SK-OV-3 ovarian
  TGI: > 100 µM
HOP-62 NSCLC
  TGI: > 100 µM
KM20L2 colon
  TGI: > 100 µM
MOLT-4 leukemia
  TGI: > 100 µM
EKVX NSCLC
  TGI: > 100 µM
SN12K1 renal
  TGI: > 100 µM
U251 CNS
  TGI: > 100 µM
HT29 colon
  TGI: > 100 µM
HOP-92 NSCLC
  TGI: > 100 µM
P388 leukemia
  TGI: > 100 µM
SNB-75 CNS
  TGI: > 100 µM
SK-MEL-5 melanoma
  TGI: > 100 µM
SNB-78 CNS
  TGI: > 100 µM
SF-268 CNS
  TGI: > 100 µM
UACC-62 melanoma
  TGI: > 100 µM

## O=C(O)CNS(=O)(=O)c1ccc(NC(=O)Nc2ccccc2)cc1
HCC-2998 colon
  TGI: > 100 µM
MALME-3M melanoma
  TGI: > 100 µM
KM12 colon
  TGI: > 100 µM
IGROV1 ovarian
  TGI: > 54.4 µM
NCI/ADR-RES ovarian
  TGI: > 100 µM
OVCAR-3 ovarian
  TGI: > 100 µM
DMS 114 small cell lung
  TGI: > 100 µM
DLD-1 colon
  TGI: > 100 µM
CCRF-CEM leukemia
  TGI: > 100 µM
XF 498 CNS
  TGI: > 100 µM
P388/ADR leukemia
  TGI: > 100 µM
RPMI-8226 leukemia
  TGI: > 100 µM
OVCAR-5 ovarian
  TGI: > 100 µM
SW-620 colon
  TGI: > 100 µM
K-562 leukemia
  TGI: > 100 µM
OVCAR-4 ovarian
  TGI: > 100 µM
UACC-257 melanoma
  TGI: > 100 µM
NCI-H226 lung
  TGI: > 100 µM
SNB-19 CNS
  TGI: > 100 µM
OVCAR-8 ovarian
  TGI: > 100 µM
A549 NSCLC
  TGI: > 100 µM
COLO 205 colon
  TGI: > 100 µM
HOP-18 NSCLC
  TGI: > 100 µM
CAKI-1 renal
  TGI: > 100 µM
SF-539 CNS
  TGI: > 100 µM
MCF7 breast
  TGI: > 100 µM
HCT-15 colon
  TGI: > 100 µM
SN12C renal
  TGI: > 100 µM
SF-295 CNS
  TGI: > 100 µM
NCI-H522 lung
  TGI: > 100 µM
SK-MEL-2 melanoma
  TGI: > 100 µM
LOX IMVI melanoma
  TGI: > 100 µM
UO-31 renal
  TGI: > 100 µM
DMS 273 small cell lung
  TGI: > 100 µM
RXF 393 renal
  TGI: > 100 µM
A498 renal
  TGI: > 100 µM
NCI-H460 lung
  TGI: > 100 µM
HL-60(TB) leukemia
  TGI: > 31.6 µM
HCT-116 colon
  TGI: > 100 µM
SK-MEL-28 melanoma
  TGI: > 100 µM
NCI-H23 lung
  TGI: > 100 µM
SK-OV-3 ovarian
  TGI: > 100 µM
HOP-62 NSCLC
  TGI: > 100 µM
M19-MEL melanoma
  TGI: > 55.5 µM
KM20L2 colon
  TGI: > 100 µM
MOLT-4 leukemia
  TGI: > 100 µM
EKVX NSCLC
  TGI: > 100 µM
SN12K1 renal
  TGI: > 100 µM
U251 CNS
  TGI: > 100 µM
HT29 colon
  TGI: > 100 µM
HOP-92 NSCLC
  TGI: > 100 µM
P388 leukemia
  TGI: > 100 µM
SNB-75 CNS
  TGI: > 100 µM
SK-MEL-5 melanoma
  TGI: > 100 µM
SNB-78 CNS
  TGI: > 100 µM
SF-268 CNS
  TGI: > 100 µM
UACC-62 melanoma
  TGI: > 52.9 µM

## COc1cc([C@@H]2c3cc4c(c(O)c3C[C@H]3COC(=O)[C@@H]32)OCO4)cc(OC)c1O
HCC-2998 colon
  GI50: 0.0283 µM
  TGI: 2 µM
MALME-3M melanoma
  GI50: 0.00116 µM
KM12 colon
  TGI: > 200 µM
IGROV1 ovarian
  GI50: 0.00276 µM
  TGI: > 128 µM
DMS 114 small cell lung
  GI50: 0.00231 µM
  TGI: 0.00546 µM
LXFL 529 NSCLC
  TGI: 0.00859 µM
DLD-1 colon
  GI50: 0.00421 µM and 0.02 µM
  TGI: > 200 µM
CCRF-CEM leukemia
  GI50: 0.00337 µM and 0.02 µM
  TGI: > 35.6 µM
XF 498 CNS
  TGI: 0.702 µM
P388/ADR leukemia
  TGI: 0.992 µM
RPMI-8226 leukemia
  GI50: 0.0041 µM
  TGI: 49.1 µM
OVCAR-5 ovarian
  TGI: > 200 µM
SW-620 colon
  GI50: 0.00397 µM
  TGI: > 200 µM
K-562 leukemia
  GI50: 0.00312 µM
  TGI: > 50.2 µM
OVCAR-4 ovarian
  TGI: > 200 µM
UACC-257 melanoma
  GI50: 0.005 µM
  TGI: > 20 µM
NCI-H226 lung
  GI50: 0.00562 µM
SNB-19 CNS
  TGI: > 200 µM
OVCAR-8 ovarian
  GI50: 0.0053 µM
  TGI: > 200 µM
A549 NSCLC
  GI50: 0.00385 µM
  TGI: > 200 µM
COLO 205 colon
  TGI: 0.174 µM
CAKI-1 renal
  GI50: 0.00611 µM
  TGI: < 0.02 µM
MCF7 breast
  TGI: > 200 µM
HCT-15 colon
  GI50: 0.00348 µM and 0.0265 µM
  TGI: > 9.28 µM
SN12C renal
  GI50: 0.00372 µM
  TGI: 0.431 µM
SF-295 CNS
  GI50: 0.00304 µM
  TGI: < 0.02 µM
SK-MEL-2 melanoma
  TGI: 6.56 µM
LOX IMVI melanoma
  GI50: 0.00394 µM and 0.0367 µM
  TGI: > 200 µM
UO-31 renal
  TGI: > 77.7 µM
DMS 273 small cell lung
  GI50: 0.00198 µM
RXF 393 renal
  GI50: 0.00215 µM
A498 renal
  GI50: 0.00144 µM
  TGI: 0.0046 µM and < 0.02 µM
HL-60(TB) leukemia
  GI50: 0.00241 µM
  TGI: 0.0066 µM
HCT-116 colon
  GI50: 0.0039 µM
  TGI: > 20 µM
SK-MEL-28 melanoma
  TGI: > 200 µM
NCI-H23 lung
  TGI: 0.637 µM
HOP-62 NSCLC
  GI50: 0.00487 µM
  TGI: > 200 µM
M19-MEL melanoma
  GI50: 0.00461 µM
  TGI: > 200 µM
KM20L2 colon
  GI50: 0.0105 µM and 0.0332 µM
  TGI: 0.0279 µM and 0.059 µM
MOLT-4 leukemia
  GI50: 0.00384 µM and 0.0274 µM
  TGI: 0.0374 µM
EKVX NSCLC
  TGI: > 92.8 µM
U251 CNS
  GI50: 0.00228 µM and < 0.02 µM
  TGI: 0.00608 µM and < 0.02 µM
HT29 colon
  GI50: 0.0182 µM
  TGI: 1.53 µM
HOP-92 NSCLC
  GI50: 0.00576 µM
  TGI: 0.113 µM
P388 leukemia
  TGI: 1.9 µM
SNB-75 CNS
  GI50: 0.00421 µM
  TGI: > 78.6 µM
SK-MEL-5 melanoma
  GI50: 0.00221 µM
  TGI: 0.00624 µM and < 0.02 µM
SNB-78 CNS
  GI50: 0.00309 µM
  TGI: > 200 µM
SF-268 CNS
  GI50: 0.0043 µM
  TGI: > 200 µM
UACC-62 melanoma
  GI50: 0.00454 µM
  TGI: > 200 µM
